A melting point compilation (Tetko et al.; mined from patent text by program, amines drawn as free bases though some values may be those of a salt)

SMILES	melting point
CNc1nc(-c2cccc(NC(=O)c3ccccc3)c2)c2cc(OC)c(OC)cc2n1	146 to 148 °C
O=C(c1cccc(Cl)c1)C1C(=O)c2ccccc2C1=O	148 to 149 °C
Cc1ccn(-c2ccc(S(C)(=O)=O)cc2)c1-c1ccc(OC(F)F)cc1	98 to 99 °C
CCCCCCCOc1ccc(C(=O)CCC(=O)O)cc1	104 to 106 °C
O=C(Nc1cccc2c(CCO)c(Br)cnc12)c1c(Cl)cccc1Cl	199 to 200 °C
Cc1ccc2c(c1)c1cc(-c3ccc(O)cc3)c(=O)n(C)c1n2C	> 280 °C
CN1C(=O)C(c2ccncc2)(c2cccc(O)c2)N=C1N (centres undefined)	245 to 247 °C
CC1CN(c2cc3c(cc2F)C(=O)c2nc4ccccc4c(=O)n2-3)CCN1C(=O)OC(C)(C)C (centres undefined)	234 to 237 °C
CC(C)(C)OC(=O)N1CCCN(c2ccc([N+](=O)[O-])cc2C#N)CC1	98 °C
Nc1cc(F)ccc1C(=O)Oc1ccccc1	69 to 70 °C
Clc1ccc(C=NOCC2CO2)cc1 (centres undefined)	69 to 70 °C
CCCn1c(=Nc2ccc([N+](=O)[O-])cc2)sc2ncccc2c1=O	112 to 113 °C
O=C1c2ccccc2C(=O)c2[nH]c(-c3ccccc3)nc21	> 260 °C
O=C(O)c1ccc(CO/N=C/c2cc3ccccc3n2Cc2ccccc2)cc1Br	148 to 149 °C
CC(SC(=O)c1ccccc1)C(=O)N(CC(=O)O)C1CC1 (centres undefined)	140 to 143 °C
C=CCN1CCNC1=C[N+](=O)[O-]	97 to 98 °C
Cc1nc2n(c(=O)c1C(N)=O)C(C)CCC2=NNc1ccccc1 (centres undefined)	235 to 237 °C
CCc1cc(C)nc2c(C)ccc(N)c12	60 to 62 °C
COc1cccc2c(=O)n3ccsc3nc12	230 to 232 °C
COc1ccc([N+](=O)[O-])c2c1OCC(C(=O)O)C2 (centres undefined)	181 to 183 °C

SMILES	melting point
Cc1cc(F)ccc1Nc1nc(N(C)c2ccccc2)c2cccc(OCCCN3CCOCC3)c2n1	133 to 134 °C
COc1ccc(F)cc1C(C)(C)CC(O)(Cn1[nH]c(=O)c2ccccc21)C(F)(F)F (centres undefined)	141 to 144 °C
OCCOC(c1ccccc1)(c1ccccc1)c1ccccc1	103 to 106 °C
CCOC=C(C#N)C(=O)c1cc(F)c(F)c(F)c1F	99 to 101 °C
Cc1cc2c(N=C3SCC4Cc5sccc5CN34)cccc2cn1 (racemic)	159 °C
N#CC(C#N)=CN(N=C(C#N)C#N)c1ccc([N+](=O)[O-])cc1	179 to 181 °C
CCC(=O)OC(CC)c1nc2c(C(F)(F)F)cccc2c(O)c1C(=O)Nc1ccccn1 (centres undefined)	204 °C
CCCCCCCCCCOC(=O)C1=C(C)OC(N)=C(C(=O)OCC)C1c1cccc([N+](=O)[O-])c1 (centres undefined)	100 °C
O=C1Nc2ccc(F)c(F)c2C(=O)N2CCC[C@@H]12	> 250 °C
COc1ccc2c(c1)c(CC(=O)OCC(=O)NCCO[N+](=O)[O-])c(C)n2C(=O)c1ccc(Cl)cc1	128 to 129 °C
O=C(CNC1=Nc2ccc(Cl)cc2C(c2ccccc2Cl)=NC1)CN1C(=O)c2ccccc2C1=O	180 to 190 °C
COc1cc(Nc2nccc(-c3ccc(N)cc3)n2)cc(OC)c1OC	195 °C
Cc1ccccc1C(=O)Nc1ccc(-n2nc(C(F)(F)F)cc2C2CC2)cc1	143 to 146 °C
CSCC[C@H](N)C(=O)NC(=O)N(CCCl)N=O	95 to 97 °C
NCCc1cc2c(-c3ccccc3)c(CC(=O)Nc3ccc(Cl)cc3C(F)(F)F)c(=O)oc2cc1Cl	165 to 167 °C
C=CCOC(=O)c1cnn(-c2c(Cl)cc(Br)cc2Cl)c1N	85 °C
CN(C)C(=O)Nc1cccc(S(N)(=O)=O)c1	193 to 194 °C
CCOc1ccc2c(c1C=NO)OCO2	161 to 164 °C
CCOCCOC(=O)C1=C(C)NC(C(OCC)OCC)=C(C(=O)OCC)C1c1cccc([N+](=O)[O-])c1 (centres undefined)	99 to 100 °C
